Consider six molecules from patent US20070299032A1, “Method and Composition for Thickening Hair” (Shiseido Company, Ltd., priority 2003, published 2007).

Common to all, as to assay type: cell-based
For assay [1], the system named is FGF-7. The assay is described as follows: Increased expression of FGF-7 in human dermal papilla cells by quantitative RT-PCR. How it is done: The human dermal papilla cells (DPC) used in the experiment consisted of DPC originating in a person that were placed in frozen storage after being isolated and cultured from human scalp provided as a by-product of plastic surgery. […] Only MEM (serum-free) was used for the control cells, and these cells were treated in the same manner. mRNA was extracted from the cultured cells with MagNAPureLC (Roche Diagnostics) at 2, 4, 8 and 24 hours after addition of adenosine followed by cDNA synthesis using the SuperScriptII reverse transcriptase kit (Invitrogen). The expressed amounts of mRNA were compared by real-time PCR using the fluorescent pigment CyberGreen I, which binds to the minor grooves of double-stranded DNA, with the LightCycler-FastStart DNA Master SYBR Green I Kit (Roche Diagnostics) by using the synthesized cDNA as a template. […] This fluorescent intensity reflects the amount of PCR product at that point in time. The amount of expressed gene was hypothesized to be that which is amplified while satisfying Y=A×2^X for the PCR product Y of the initial amount of template A during the exponential amplification period of the PCR product relative to the number of PCR cycles X, and a relative value was calculated from the number of cycles needed to obtain a given amount of PCR product. The following indicates the FGF-7 amplification primers used in this study. An RT-PCR experiment was carried out in the same manner as Experiment 1 with the exception of using two concentrations of adenosine consisting of 10 μM and 100 μM and setting the duration of adenosine treatment to 3 hours. […] The results are shown in FIGS. 4, 5 and 6, respectively.

Assay [2] has as its system FGF-7. In words: Increased expression of FGF-7 in human outer root sheath cells by quantitative RT-PCR. The following applies: adenosine 10 or 100 μM, 3 hours, FIG. 9. How it is done: The expressed amounts of mRNA were compared by real-time PCR using the fluorescent pigment CyberGreen I, which binds to the minor grooves of double-stranded DNA, with the LightCycler-FastStart DNA Master SYBR Green I Kit (Roche Diagnostics) by using the synthesized cDNA as a template. More specifically, a total volume of 20 μl of reaction liquid (MgCl2: 2 mM, forward and reverse primer: 0.25 μM each) was prepared according to the manual provided using the LightCycler-FastStart DNA Master SYBR Green I Kit (Roche Diagnostics), and a PCR reaction was carried out with the LightCycler (enzyme activation: 95° C./10 minutes; thermal denaturation: 95° C./15 seconds; annealing: 58° C./5 seconds; elongation reaction: 72° C./10 seconds; 40 cycles of thermal denaturation to elongation reaction) followed by monitoring fluorescent intensity at completion of the elongation reaction of each cycle. This fluorescent intensity reflects the amount of PCR product at that point in time. The amount of expressed gene was hypothesized to be that which is amplified while satisfying Y=A×2^X for the PCR product Y of the initial amount of template A during the exponential amplification period of the PCR product relative to the number of PCR cycles X, and a relative value was calculated from the number of cycles needed to obtain a given amount of PCR product. […]

Assay [3] concerns FGF-7. In words: Increased expression of FGF-7 in human immortalized dermal papilla cells by quantitative RT-PCR. The following applies: human immortalized dermal papilla cells (SV40 large T antigen), adenosine, 2 hours, FIG. 8. Here is the method:
mRNA was extracted from the cultured cells with MagNAPureLC (Roche Diagnostics) at 2, 4, 8 and 24 hours after addition of adenosine followed by cDNA synthesis using the SuperScriptII reverse transcriptase kit (Invitrogen). The expressed amounts of mRNA were compared by real-time PCR using the fluorescent pigment CyberGreen I, which binds to the minor grooves of double-stranded DNA, with the LightCycler-FastStart DNA Master SYBR Green I Kit (Roche Diagnostics) by using the synthesized cDNA as a template. […] The amount of expressed gene was hypothesized to be that which is amplified while satisfying Y=A×2^X for the PCR product Y of the initial amount of template A during the exponential amplification period of the PCR product relative to the number of PCR cycles X, and a relative value was calculated from the number of cycles needed to obtain a given amount of PCR product. […]

Where [4] appears, read: 100 μM, 2 hours, FIGS. 4, 5 and 6.
[5] abbreviates: CCPA 100 μM, C1-IB-MECA 50 μM, NECA 10 μM, 3 hours, FIG. 3.

As for `Cc1ccc(C2Oc3ccccc3C(=O)C2C)cc1` (stereo not drawn) [3,4′-dimethylflavanone], in assay [1] (100 μM, 2 hours), the “inhibition of increased FGF-7 expression by the adenosine receptor inhibitor 8-SPT” value (“inhibition of increased FGF-7 expression” for short) is on record as “not observed”. For the same molecule, the “expression of FGF-7 (relative amount)” value in assay [1] (setting [4]) is on record as “increased expression of FGF-7”.

On to `CC1C(=O)c2ccccc2OC1c1ccccc1` (stereo not drawn) [3-methylflavanone], for which the “inhibition of increased FGF-7 expression” value in assay [1] (100 μM, 2 hours) was “not observed”. Also, in assay [1] (setting [4]), the “expression of FGF-7 (relative amount)” value was “increased expression of FGF-7”.

Consider `OC[C@H]1O[C@@H](n2cnc3c(NC4CCCC4)nc(Cl)nc32)[C@H](O)[C@@H]1O` [CCPA, 2-chloro-N^6-cyclopentyladenosine, reference compound], for which the “expression of FGF-7 (relative amount)” value in assay [1] (setting [5]) is on record as “significantly increased”.

As to `CCNC(=O)[C@H]1O[C@@H](n2cnc3c(N)ncnc32)[C@H](O)[C@@H]1O` [NECA, N-ethylcarboxyamidoadenosine, reference compound], the “expression of FGF-7 (relative amount)” value in assay [1] (setting [5]) is “significantly increased”.

For the molecule `Nc1ncnc2c1ncn2[C@@H]1O[C@H](CO)[C@@H](O)[C@H]1O` [adenosine], the “expression of FGF-7 (relative amount)” value in assay [1] (adenosine 10 μM and 100 μM, 3 hours, FIG. 2) is “increase dependent on the concentration of adenosine”; in assay [2] it was “prominent increase in expression of FGF-7”; in assay [3] it was “increased expression of FGF-7”. Besides, in assay [1] (adenosine 100 μM, mRNA at 2, 4, 8 and 24 hours, FIG. 1), the “expression of FGF-7 (relative value)” value is “increased considerably”.

Take `O=C1CC(c2ccccc2)Oc2ccccc21` (stereo not drawn) [flavanone, reference compound]: in assay [1] (100 μM, 2 hours), the “inhibition of increased FGF-7 expression” value was “not observed”. Further, the “expression of FGF-7 (relative amount)” value in assay [1] (setting [4]) is reported as “increased expression of FGF-7”.
